Reference: patent US20150218141A1, “SUBSTITUTED CARBAMATE COMPOUNDS” (HOFFMANN-LA ROCHE INC, priority 2012, published 2015)
Structures can show the parent of a compound that is named as a salt.

Each molecule was assayed against T1, hTRPA1 (Homo sapiens, UniProt O75762) (assay: IC50 determination, dose response calcium flux (FLIPR) assay, ChanTest hTRPA1-CHO stably transfected cell line). Conditions: CHO-K1 Tet-On hTRPA1 cells, 30' preincubation, agonist cinnamaldehyde final 100 uM.
T1 construct: host or cells: CHO-K1 Tet-On, Clone 20 (Chinese Hamster Ovary cells, inducible expression)
T1 sequence (O75762 whole entry): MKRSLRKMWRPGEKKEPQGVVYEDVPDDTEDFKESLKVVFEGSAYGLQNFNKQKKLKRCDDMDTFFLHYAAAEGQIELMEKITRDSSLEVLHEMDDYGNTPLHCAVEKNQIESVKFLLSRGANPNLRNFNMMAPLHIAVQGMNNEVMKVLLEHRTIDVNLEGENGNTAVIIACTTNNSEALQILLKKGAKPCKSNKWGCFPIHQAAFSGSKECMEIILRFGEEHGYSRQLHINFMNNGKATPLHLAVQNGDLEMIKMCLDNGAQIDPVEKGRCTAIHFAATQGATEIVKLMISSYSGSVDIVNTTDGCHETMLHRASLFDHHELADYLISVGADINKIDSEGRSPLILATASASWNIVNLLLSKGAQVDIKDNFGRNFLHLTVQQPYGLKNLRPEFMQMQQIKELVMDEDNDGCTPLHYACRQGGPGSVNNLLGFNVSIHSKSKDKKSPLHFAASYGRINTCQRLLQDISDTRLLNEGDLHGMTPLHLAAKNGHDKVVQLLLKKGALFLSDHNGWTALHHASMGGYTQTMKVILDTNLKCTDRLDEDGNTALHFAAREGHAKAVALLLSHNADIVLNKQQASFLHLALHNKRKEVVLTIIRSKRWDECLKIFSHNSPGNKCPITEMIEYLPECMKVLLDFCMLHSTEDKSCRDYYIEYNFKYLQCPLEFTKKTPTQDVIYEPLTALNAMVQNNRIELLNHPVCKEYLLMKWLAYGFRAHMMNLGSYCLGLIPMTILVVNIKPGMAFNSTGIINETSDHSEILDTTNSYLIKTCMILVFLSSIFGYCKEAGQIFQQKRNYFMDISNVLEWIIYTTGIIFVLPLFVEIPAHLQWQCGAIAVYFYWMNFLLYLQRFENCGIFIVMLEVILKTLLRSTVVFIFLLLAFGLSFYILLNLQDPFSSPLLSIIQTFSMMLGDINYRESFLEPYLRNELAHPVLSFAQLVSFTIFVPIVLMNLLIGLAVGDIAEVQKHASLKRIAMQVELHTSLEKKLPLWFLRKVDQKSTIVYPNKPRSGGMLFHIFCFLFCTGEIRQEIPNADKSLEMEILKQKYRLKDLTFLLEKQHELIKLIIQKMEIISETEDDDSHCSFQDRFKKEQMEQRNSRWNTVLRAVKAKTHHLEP
Assay type: cell-based
Protocol: IC50 Determination of Exemplified Compounds Dose Response Assay: ChanTest hTRPA1-CHO Stably Transfected Cell Line
CHO-K1 Tet-On_HOMSA_TRPA1_Clone—20
Growth Media for CHO-K1 Tet-On_HOMSA_TRPA1_Clone—20 • Ham's F-12 with 10% tetracycline-free FBS • 1× penicillin-streptomycin • 1× glutamax • 0.01 mg/ml Blasticidin • 0.40 mg/ml Zeocin • The cell line doubling rate was ˜15 hours. […] Experiments were run at 24 hours post induction.
Plating Conditions CHOK1/TRPA1 Cells: • Harvested cells with 0.025% trypsin/EDTA. • Resuspended cells in growth media without selection antibiotics. • Measured cell density and diluted to 2.4×10^5 cells/ml in media containing 1 ug/ml Doxycycline Plate 25 ul/well into 384 well black/clear tissue culture-treated plates. • Incubated overnight at 37° C.
Reagents: • Replacement Buffer: Hank's Balanced Salt Solution, 20 mM HEPES along with 0.005% BSA and 2× Probenecid • Dye Loading Buffer: Cal-3 NW Calcium dye was prepared by dissolving the contents of one vial with […] Hank's Balanced Salt Solution containing 20 mM HEPES. • Control compounds for CHOK1/TRPA1 cells: AP-18, stock 10 mM, prepare 3.5× compound dilution in a Compound Buffer (HBSS/20 mM HEPES/0.005% BSA)—final concentration 10 uM.
Preparation of Cinnamaldehyde (Agonist Addition):
• Specific gravity=1.046 gm/cc • 1.32 gm/1.046 gm/cc=1.26 ml of stock • Add 1.74 ml DMSO=3.3 M stock • Working solution 4.5× (final 100 uM in Compound Buffer: HBSS/20 mM HEPES/0.005% BSA)
Compounds dilutions were prepared from 5 or 10 mM stock (100% DMSO): • Adjustments of volumes and concentrations were made at time of titration to reflect desired final assay concentrations. • Compounds were tested at either 20 μM three folds dilution 11 steps out or 30 μM two folds dilution 11 steps out. • 3 μl of diluted compound were transferred into Weidmann 384-well plate in duplicates side-by-side.
Compound plates were resuspended with 100 ul of HBSS/20 mM HEPES/0.005% BSA buffer (Compound Buffer):
Growth media was removed from the cell plates (20 ul) and 20 ul of the Replacement Buffer was added followed by addition of 25 ul of diluted dye. All three steps were performed using a Plate Washer BioTek 407. The plates were then incubated for 30′ at RT.
After incubation, both the cell and compound plates were brought to the FLIPR and 20 ul of the diluted compounds/antagonist/bk were transferred to the cell plates by the FLIPR. Plates were then incubated for 30′ at room temperature. After 30′ incubation, plates were returned to the FLIPR and 20 ul of 4.5× Cinnamaldehyde was added to the cell plates. During the compound addition as well as agonist addition, fluorescence readings were taken simultaneously from all 384 wells of the cell plate every 1.5 seconds. Five readings were taken to establish a stable baseline, then 20 ul of sample was rapidly (30 ul/sec) and simultaneously added to each well of the cell plate. The fluorescence was continuously monitored before, during and after sample/agonist addition for a total elapsed time of 100 seconds (compound addition) and 120 seconds (agonist addition). Responses (increase in peak fluorescence) in each well following agonist addition was determined. The initial fluorescence reading from each well, prior to ligand stimulation, was used a zero baseline value for the data from that well.

SMILES | IC50 [nM]
O=C(Nc1ccc(Cl)cc1)O[C@@H](CN1CCC(Cc2ccccc2)C1)C(F)(F)F (stereo partly drawn) [Example 64, (4-Chlorophenyl)-carbamic acid (S)-1-(3-benzylpyrrolidin-1-ylmethyl)-2,2,2-trifluoro-ethyl ester] | 4990
COCCOc1cc(C2CCCN(C[C@H](OC(=O)Nc3ccc(Cl)cc3)C(F)(F)F)C2)ccc1F (stereo partly drawn) [Example 34, (4-Chlorophenyl)-carbamic acid (S)-2,2,2-trifluoro-1-{3-[4-fluoro-3-(2-methoxyethoxy)-phenyl]-piperidin-1-ylmethyl}-ethyl ester] | 339
COc1ccc(C2CCCN(C[C@H](OC(=O)Nc3ccc(Cl)cc3)C(F)(F)F)C2)cc1 (stereo partly drawn) [Example 38, (4-Chlorophenyl)-carbamic acid (S)-2,2,2-trifluoro-1-[3-(4-methoxyphenyl)-piperidin-1-ylmethyl]-ethyl ester] | 622
CS(=O)(=O)c1cccc(C2CCCN(C[C@H](OC(=O)Nc3ccc(F)cc3)C(F)(F)F)C2)c1 (stereo partly drawn) [Example 63, (4-Fluorophenyl)-carbamic acid (S)-2,2,2-trifluoro-1-[3-(3-methanesulfonylphenyl)-piperidin-1-ylmethyl]-ethyl ester hydrochloride] | 2910
O=C(Nc1ccc(Cl)cn1)O[C@@H](CN1CCCC(c2cccc(C(F)(F)F)c2)C1)C(F)(F)F (stereo partly drawn) [Example 59, (5-Chloropyridin-2-yl)-carbamic acid (S)-2,2,2-trifluoro-1-[3-(3-trifluoromethylphenyl)-piperidin-1-ylmethyl]-ethyl ester hydrochloride] | 270
O=C(Nc1ccc(Cl)cc1)O[C@@H](CN1CCCC(c2ccc(C(F)(F)F)nc2)C1)C(F)(F)F (stereo partly drawn) [Example 57, (4-Chlorophenyl)-carbamic acid (S)-2,2,2-trifluoro-1-(6′-trifluoromethyl-3,4,5,6-tetrahydro-2H-[3,3′]bipyridinyl-1-ylmethyl)-ethyl ester hydrochloride] | 342
O=C(Nc1ccc(Cl)cc1)O[C@@H](CN1CCC[C@@H](c2cc(C(F)(F)F)cc(C(F)(F)F)c2)C1)C(F)(F)F (single isomer, unassigned) [Example 24] | 312
O=C(Nc1ccc(Cl)cc1)OC(CN1CCCC(C2CCCCC2)C1)C(F)(F)F (centres unmarked) [Example 18, (4-Chlorophenyl)-carbamic acid 1-(3-cyclohexylpiperidin-1-ylmethyl)-2,2,2-trifluoroethyl ester] | 883
O=C(Nc1ccc(Cl)cc1)O[C@@H](CN1CCCC(c2ccc(F)cc2)C1)C(F)(F)F (stereo partly drawn) [Example 42, (4-Chlorophenyl)-carbamic acid (S)-2,2,2-trifluoro-1-[3-(4-fluorophenyl)-piperidin-1-ylmethyl]-ethyl ester hydrochloride] | 444
O=C(Nc1ccc(Cl)cc1)OC(CN1CCCC(C(F)(F)F)C1)C(F)(F)F (centres unmarked) [Example 15, (4-chlorophenyl)-carbamic acid 2,2,2-trifluoro-1-(3-trifluoromethylpiperidin-1-ylmethyl)-ethyl ester] | 563
O=C(Nc1ccc(Cl)cc1)O[C@@H](CN1CCC[C@H](c2ccccc2)C1)C(F)(F)F [Example 5, (4-Chlorophenyl)-carbamic acid (S)-2,2,2-trifluoro-1-((R)-3-phenylpiperidin-1-ylmethyl)-ethyl ester hydrochloride] | 333
COC1CCCN(CC(OC(=O)Nc2ccc(Cl)cc2)C(F)(F)F)C1 (centres unmarked) [Example 16, (4-Chlorophenyl)-carbamic acid 2,2,2-trifluoro-1-(3-methoxypiperidin-1-ylmethyl)-ethyl ester] | 4160
COc1cccc(C2CCCN(CC(OC(=O)Nc3ccc(Cl)cc3)C(F)(F)F)C2)c1 (centres unmarked) [Example 2, (4-Chlorophenyl)-carbamic acid 2,2,2-trifluoro-1-[3-(3-methoxyphenyl)-piperidin-1-ylmethyl]-ethyl ester hydrochloride] | 345
N#Cc1ccnc(OC2CCCN(C[C@H](OC(=O)Nc3ccc(Cl)cc3)C(F)(F)F)C2)c1 (stereo partly drawn) [Example 54, (4-Chlorophenyl)-carbamic acid (S)-1-[3-(4-cyanopyridin-2-yloxy)-piperidin-1-ylmethyl]-2,2,2-trifluoroethyl ester hydrochloride] | 596
CCC1CCCN(CC(OC(=O)Nc2ccc(Cl)cc2)C(F)(F)F)C1 (centres unmarked) [Example 17, (4-Chlorophenyl)-carbamic acid 1-(3-ethylpiperidin-1-ylmethyl)-2,2,2-trifluoroethyl ester] | 900

The next molecules have a lower IC50 than those just listed; values first:

IC50 [nM] | SMILES
257 | O=C(Nc1ccc(F)c(Cl)c1)O[C@@H](CN1CCCC(c2cccc(C(F)(F)F)c2)C1)C(F)(F)F (stereo partly drawn) [Example 65, (3-Chloro-4-fluoro-phenyl)-carbamic acid (S)-2,2,2-trifluoro-1-[3-(3-trifluoromethyl-phenyl)-piperidin-1-ylmethyl]-ethyl ester]
219 | N#Cc1cccc(OC2CCCN(C[C@H](OC(=O)Nc3ccc(Cl)cc3)C(F)(F)F)C2)c1 (stereo partly drawn) [Example 47, (4-Chlorophenyl)-carbamic acid (S)-1-[3-(3-cyanophenoxy)-piperidin-1-ylmethyl]-2,2,2-trifluoroethyl ester hydrochloride]
192 | O=C(Nc1ccc(Cl)nc1)O[C@@H](CN1CCCC(c2cccc(C(F)(F)F)c2)C1)C(F)(F)F (stereo partly drawn) [Example 68, (6-Chloropyridin-3-yl)-carbamic acid (S)-2,2,2-trifluoro-1-[3-(3-trifluoromethylphenyl)-piperidin-1-ylmethyl]-ethyl ester]
174 | O=C(Nc1ccc(Cl)cn1)O[C@@H](CN1CCC[C@H](c2cccc(C(F)(F)F)c2)C1)C(F)(F)F [Example 58, (5-Chloropyridin-2-yl)-carbamic acid (S)-2,2,2-trifluoro-1-[(R)-3-(3-trifluoromethyl-phenyl)-piperidin-1-ylmethyl]-ethyl ester hydrochloride]
121 | COc1cccc([C@H]2CCCN(C[C@H](OC(=O)Nc3ccc(Cl)cc3)C(F)(F)F)C2)c1 [Example 3, (4-Chlorophenyl)-carbamic acid (S)-2,2,2-trifluoro-1-[(R)-3-(3-methoxyphenyl)-piperidin-1-ylmethyl]-ethyl ester hydrochloride]
114 | O=C(Nc1ccc(Cl)cc1)O[C@@H](CN1CCC[C@H](Oc2ccc(Cl)cc2)C1)C(F)(F)F [Example 52a, (4-Chlorophenyl)-carbamic acid (S)-1-[(S)-3-(4-chlorophenoxy)-piperidin-1-ylmethyl]-2,2,2-trifluoroethyl ester hydrochloride]
113 | COc1cc([C@H]2CCCN(C[C@H](OC(=O)Nc3ccc(Cl)cc3)C(F)(F)F)C2)ccc1F [Example 32, (4-Chloro-phenyl)-carbamic acid (S)-2,2,2-trifluoro-1-[(R)-3-(4-fluoro-3-methoxy-phenyl)-piperidin-1-ylmethyl]-ethyl ester hydrochloride]
87.2 | O=C(Nc1ccc(Cl)cc1)O[C@@H](CN1CCC[C@H](Cc2ccccc2)C1)C(F)(F)F (single isomer, unassigned) [Example 11]
78.3 | O=C(Nc1ccc(Cl)cc1)O[C@@H](CN1CCC(F)(F)CC1)C(F)(F)F [Example 33, (4-Chlorophenyl)-carbamic acid (S)-1-(4,4-difluoropiperidin-1-ylmethyl)-2,2,2-trifluoroethyl ester hydrochloride]
21.5 | O=C(Nc1ccc(Cl)cc1)O[C@@H](CN1CCC[C@H](c2cc(C(F)(F)F)cc(C(F)(F)F)c2)C1)C(F)(F)F [Example 23, (4-Chlorophenyl)-carbamic acid (S)-1-[(R)-3-(3,5-bis-trifluoromethylphenyl)-piperidin-1ylmethyl]-2,2,2-trifluoroethyl ester]
10.4 | O=C(Nc1ccc(Cl)cc1)O[C@@H](CN1CCC[C@H](c2cccc(C(F)(F)F)c2)C1)C(F)(F)F (single isomer, unassigned) [Example 30, hydrochloride]
